# Experiment: Inhibition against delta receptor from displacement studies using 1.5 nM [3H]DPDPE in rhesus monkey cortex membrane
row,Structure (SMILES),Ki [µM]
1,"C[C@@H]1C2Cc3ccc(O)cc3[C@]1(C)CCN2C [(6R,11S)-3,6,11-Trimethyl-1,2,3,4,5,6-hexahydro-2,6-methano-benzo[d]azocin-8-ol]",7
2,"CCCCN1CC[C@@]2(C)c3cc(O)ccc3CC1[C@H]2C [(6R,11S)-3-Butyl-6,11-dimethyl-1,2,3,4,5,6-hexahydro-2,6-methano-benzo[d]azocin-8-ol]",7
3,"CCN1CC[C@@]2(C)c3cc(O)ccc3CC1[C@H]2C [(6R,11S)-3-Ethyl-6,11-dimethyl-1,2,3,4,5,6-hexahydro-2,6-methano-benzo[d]azocin-8-ol]",7
4,"C[C@@H]1C2Cc3ccc(O)cc3[C@]1(C)CCN2 [(6R,11S)-6,11-Dimethyl-1,2,3,4,5,6-hexahydro-2,6-methano-benzo[d]azocin-8-ol]",7
5,"CCCCCN1CC[C@@]2(C)c3cc(O)ccc3CC1[C@H]2C [(6R,11S)-6,11-Dimethyl-3-pentyl-1,2,3,4,5,6-hexahydro-2,6-methano-benzo[d]azocin-8-ol]",7
6,"CCCN1CC[C@@]2(C)c3cc(O)ccc3CC1[C@H]2C [(6R,11S)-6,11-Dimethyl-3-propyl-1,2,3,4,5,6-hexahydro-2,6-methano-benzo[d]azocin-8-ol]",7
7,"C[C@H]1C2Cc3ccc(O)cc3[C@@]1(C)CCN2C [(6S,11R)-3,6,11-Trimethyl-1,2,3,4,5,6-hexahydro-2,6-methano-benzo[d]azocin-8-ol]",0.152
8,"CCCCN1CC[C@]2(C)c3cc(O)ccc3CC1[C@@H]2C [(6S,11R)-3-Butyl-6,11-dimethyl-1,2,3,4,5,6-hexahydro-2,6-methano-benzo[d]azocin-8-ol]",0.078
9,"CCCCCCCCCCN1CC[C@]2(C)c3cc(O)ccc3CC1[C@@H]2C [(6S,11R)-3-Decyl-6,11-dimethyl-1,2,3,4,5,6-hexahydro-2,6-methano-benzo[d]azocin-8-ol]",2.58
10,"CCN1CC[C@]2(C)c3cc(O)ccc3CC1[C@@H]2C [(6S,11R)-3-Ethyl-6,11-dimethyl-1,2,3,4,5,6-hexahydro-2,6-methano-benzo[d]azocin-8-ol]",0.158
11,"CCCCCCCN1CC[C@]2(C)c3cc(O)ccc3CC1[C@@H]2C [(6S,11R)-3-Heptyl-6,11-dimethyl-1,2,3,4,5,6-hexahydro-2,6-methano-benzo[d]azocin-8-ol]",0.057

# Experiment: Inhibition against kappa receptor from displacement studies using 1.5 nM [3H]U-69593 in rhesus monkey cortex membrane
row,Structure (SMILES),Ki [nM]
1,"C[C@@H]1C2Cc3ccc(O)cc3[C@]1(C)CCN2C [(6R,11S)-3,6,11-Trimethyl-1,2,3,4,5,6-hexahydro-2,6-methano-benzo[d]azocin-8-ol]",3780
2,"CCCCN1CC[C@@]2(C)c3cc(O)ccc3CC1[C@H]2C [(6R,11S)-3-Butyl-6,11-dimethyl-1,2,3,4,5,6-hexahydro-2,6-methano-benzo[d]azocin-8-ol]",783
3,"CCN1CC[C@@]2(C)c3cc(O)ccc3CC1[C@H]2C [(6R,11S)-3-Ethyl-6,11-dimethyl-1,2,3,4,5,6-hexahydro-2,6-methano-benzo[d]azocin-8-ol]",3780
4,"C[C@@H]1C2Cc3ccc(O)cc3[C@]1(C)CCN2 [(6R,11S)-6,11-Dimethyl-1,2,3,4,5,6-hexahydro-2,6-methano-benzo[d]azocin-8-ol]",3780
5,"CCCCCN1CC[C@@]2(C)c3cc(O)ccc3CC1[C@H]2C [(6R,11S)-6,11-Dimethyl-3-pentyl-1,2,3,4,5,6-hexahydro-2,6-methano-benzo[d]azocin-8-ol]",738
6,"CCCN1CC[C@@]2(C)c3cc(O)ccc3CC1[C@H]2C [(6R,11S)-6,11-Dimethyl-3-propyl-1,2,3,4,5,6-hexahydro-2,6-methano-benzo[d]azocin-8-ol]",452
7,"C[C@H]1C2Cc3ccc(O)cc3[C@@]1(C)CCN2C [(6S,11R)-3,6,11-Trimethyl-1,2,3,4,5,6-hexahydro-2,6-methano-benzo[d]azocin-8-ol]",17
8,"CCCCN1CC[C@]2(C)c3cc(O)ccc3CC1[C@@H]2C [(6S,11R)-3-Butyl-6,11-dimethyl-1,2,3,4,5,6-hexahydro-2,6-methano-benzo[d]azocin-8-ol]",4.9
9,"CCCCCCCCCCN1CC[C@]2(C)c3cc(O)ccc3CC1[C@@H]2C [(6S,11R)-3-Decyl-6,11-dimethyl-1,2,3,4,5,6-hexahydro-2,6-methano-benzo[d]azocin-8-ol]",2260
10,"CCN1CC[C@]2(C)c3cc(O)ccc3CC1[C@@H]2C [(6S,11R)-3-Ethyl-6,11-dimethyl-1,2,3,4,5,6-hexahydro-2,6-methano-benzo[d]azocin-8-ol]",16
11,"CCCCCCCN1CC[C@]2(C)c3cc(O)ccc3CC1[C@@H]2C [(6S,11R)-3-Heptyl-6,11-dimethyl-1,2,3,4,5,6-hexahydro-2,6-methano-benzo[d]azocin-8-ol]",32

# Experiment: Inhibition against mu receptor from displacement studies using 0.5 nM [3H]-DAMGO in rhesus monkey cortex membrane
row,Structure (SMILES),Ki [nM]
1,"C[C@@H]1C2Cc3ccc(O)cc3[C@]1(C)CCN2C [(6R,11S)-3,6,11-Trimethyl-1,2,3,4,5,6-hexahydro-2,6-methano-benzo[d]azocin-8-ol]",1380
2,"CCCCN1CC[C@@]2(C)c3cc(O)ccc3CC1[C@H]2C [(6R,11S)-3-Butyl-6,11-dimethyl-1,2,3,4,5,6-hexahydro-2,6-methano-benzo[d]azocin-8-ol]",1240
3,"C[C@@H]1C2Cc3ccc(O)cc3[C@]1(C)CCN2 [(6R,11S)-6,11-Dimethyl-1,2,3,4,5,6-hexahydro-2,6-methano-benzo[d]azocin-8-ol]",1720
4,"CCCCCN1CC[C@@]2(C)c3cc(O)ccc3CC1[C@H]2C [(6R,11S)-6,11-Dimethyl-3-pentyl-1,2,3,4,5,6-hexahydro-2,6-methano-benzo[d]azocin-8-ol]",776
5,"CCCN1CC[C@@]2(C)c3cc(O)ccc3CC1[C@H]2C [(6R,11S)-6,11-Dimethyl-3-propyl-1,2,3,4,5,6-hexahydro-2,6-methano-benzo[d]azocin-8-ol]",943
6,"C[C@H]1C2Cc3ccc(O)cc3[C@@]1(C)CCN2C [(6S,11R)-3,6,11-Trimethyl-1,2,3,4,5,6-hexahydro-2,6-methano-benzo[d]azocin-8-ol]",4.2
7,"CCCCN1CC[C@]2(C)c3cc(O)ccc3CC1[C@@H]2C [(6S,11R)-3-Butyl-6,11-dimethyl-1,2,3,4,5,6-hexahydro-2,6-methano-benzo[d]azocin-8-ol]",3.4
8,"CCCCCCCCCCN1CC[C@]2(C)c3cc(O)ccc3CC1[C@@H]2C [(6S,11R)-3-Decyl-6,11-dimethyl-1,2,3,4,5,6-hexahydro-2,6-methano-benzo[d]azocin-8-ol]",997
9,"CCN1CC[C@]2(C)c3cc(O)ccc3CC1[C@@H]2C [(6S,11R)-3-Ethyl-6,11-dimethyl-1,2,3,4,5,6-hexahydro-2,6-methano-benzo[d]azocin-8-ol]",16
10,"CCCCCCCN1CC[C@]2(C)c3cc(O)ccc3CC1[C@@H]2C [(6S,11R)-3-Heptyl-6,11-dimethyl-1,2,3,4,5,6-hexahydro-2,6-methano-benzo[d]azocin-8-ol]",27

# Experiment: Inhibition against sigma receptor using displacement of 3 nM [3H]pentazocine in homogenate of guinea pig brain cerebellum
row,Structure (SMILES),Ki [nM]
1,"C[C@@H]1C2Cc3ccc(O)cc3[C@]1(C)CCN2C [(6R,11S)-3,6,11-Trimethyl-1,2,3,4,5,6-hexahydro-2,6-methano-benzo[d]azocin-8-ol]",1330
2,"CCCCN1CC[C@@]2(C)c3cc(O)ccc3CC1[C@H]2C [(6R,11S)-3-Butyl-6,11-dimethyl-1,2,3,4,5,6-hexahydro-2,6-methano-benzo[d]azocin-8-ol]",6
3,"CCN1CC[C@@]2(C)c3cc(O)ccc3CC1[C@H]2C [(6R,11S)-3-Ethyl-6,11-dimethyl-1,2,3,4,5,6-hexahydro-2,6-methano-benzo[d]azocin-8-ol]",1090
4,"C[C@@H]1C2Cc3ccc(O)cc3[C@]1(C)CCN2 [(6R,11S)-6,11-Dimethyl-1,2,3,4,5,6-hexahydro-2,6-methano-benzo[d]azocin-8-ol]",2730
5,"CCCN1CC[C@@]2(C)c3cc(O)ccc3CC1[C@H]2C [(6R,11S)-6,11-Dimethyl-3-propyl-1,2,3,4,5,6-hexahydro-2,6-methano-benzo[d]azocin-8-ol]",43
6,"C[C@H]1C2Cc3ccc(O)cc3[C@@]1(C)CCN2C [(6S,11R)-3,6,11-Trimethyl-1,2,3,4,5,6-hexahydro-2,6-methano-benzo[d]azocin-8-ol]",18100
7,"CCCCN1CC[C@]2(C)c3cc(O)ccc3CC1[C@@H]2C [(6S,11R)-3-Butyl-6,11-dimethyl-1,2,3,4,5,6-hexahydro-2,6-methano-benzo[d]azocin-8-ol]",104
8,"CCCCCCCCCCN1CC[C@]2(C)c3cc(O)ccc3CC1[C@@H]2C [(6S,11R)-3-Decyl-6,11-dimethyl-1,2,3,4,5,6-hexahydro-2,6-methano-benzo[d]azocin-8-ol]",38
9,"CCN1CC[C@]2(C)c3cc(O)ccc3CC1[C@@H]2C [(6S,11R)-3-Ethyl-6,11-dimethyl-1,2,3,4,5,6-hexahydro-2,6-methano-benzo[d]azocin-8-ol]",16600
10,"CCCCCCCN1CC[C@]2(C)c3cc(O)ccc3CC1[C@@H]2C [(6S,11R)-3-Heptyl-6,11-dimethyl-1,2,3,4,5,6-hexahydro-2,6-methano-benzo[d]azocin-8-ol]",49
